{"source": "the NIST ThermoML archive (doi:10.1016/j.jct.2008.09.021)", "key": {"[1]": {"test": "refractive index (Na D-line) (dimensionless)", "settings": "298.15 K; 101.33 kPa; Liquid; Standard Abbe refractometry"}, "[2]": {"settings": "Liquid; for mass density: 303.15 K, 101.33 kPa, Pycnometric method; for vapor or sublimation pressure: Ebulliometric method (Recirculating still)"}}, "note": "± gives the expanded uncertainty stated by the source."}
{"smiles": "CC(C)CO", "note": "[2-methyl-1-propanol]", "values": [{"measurement": "refractive index", "setting": "[1]", "value": "1.3939 ± 0.0013"}, {"measurement": "mass density", "setting": "[2]", "value": "794.34 ± 4.6", "unit": "kg/m3"}, {"measurement": "vapor or sublimation pressure", "setting": "[2]; 379.35 K", "value": "95.3 ± 2", "unit": "kPa"}]}
{"smiles": "CC(C)(C)O", "note": "[2-methylpropan-2-ol]", "values": [{"measurement": "refractive index", "setting": "[1]", "value": "1.3851 ± 0.0013"}, {"measurement": "mass density", "setting": "[2]", "value": "776.16 ± 4.4", "unit": "kg/m3"}, {"measurement": "vapor or sublimation pressure", "setting": "[2]; 353.95 K", "value": "95.3 ± 2", "unit": "kPa"}]}
{"smiles": "CC(C)CCO", "note": "[3-methylbutan-1-ol]", "values": [{"measurement": "refractive index", "setting": "[1]", "value": "1.4053 ± 0.0013"}, {"measurement": "mass density", "setting": "[2]", "value": "801.76 ± 4.7", "unit": "kg/m3"}, {"measurement": "vapor or sublimation pressure", "setting": "[2]; 401.85 K", "value": "95.3 ± 2", "unit": "kPa"}]}
{"smiles": "CN1CCCC1=O", "note": "[N-methylpyrrolidone]", "values": [{"measurement": "refractive index", "setting": "[1]", "value": "1.4674 ± 0.0008"}, {"measurement": "mass density", "setting": "[2]", "value": "1023.4 ± 0.61", "unit": "kg/m3"}, {"measurement": "vapor or sublimation pressure", "setting": "[2]; 473.25 K", "value": "95.3 ± 1.9", "unit": "kPa"}]}
{"smiles": "CCC(C)O", "note": "(stereo not drawn) [butan-2-ol]", "values": [{"measurement": "refractive index", "setting": "[1]", "value": "1.3954 ± 0.0013"}, {"measurement": "mass density", "setting": "[2]", "value": "798.92 ± 4.7", "unit": "kg/m3"}, {"measurement": "vapor or sublimation pressure", "setting": "[2]; 371.05 K", "value": "95.3 ± 2", "unit": "kPa"}]}
{"smiles": "CC(C)O", "note": "[propan-2-ol]", "values": [{"measurement": "refractive index", "setting": "[1]", "value": "1.375 ± 0.0013"}, {"measurement": "mass density", "setting": "[2]", "value": "776.88 ± 4.4", "unit": "kg/m3"}, {"measurement": "vapor or sublimation pressure", "setting": "[2]; 353.85 K", "value": "95.3 ± 2", "unit": "kPa"}]}
